Reference: patent publication US12697477B2, “Device for delivery of antimicrobial agent into a medical device” (ICU Medical, Inc., priority 2011, dated 2026)

How the values were obtained:
Format in all cases: cell-based
Candida albicans = test: Coated cap luer against Candida albicans seeded within the catheter's luer region; details: 50 μg coated on the cap's luer portion
Method: For instance, if using a chlorhexidine based antimicrobial, approximately 50 μg of chlorhexidine acetate can be effective in some embodiments. […] The caps containing the coated luers killed all of the Candida albicans that were seeded within the catheter's luer region. Within the same experiment, the Candida albicans remained viable when uncoated caps were used. Greater than 5 μg chlorhexidine acetate on the luer region is effective; 10 μg to 300 μg is preferred, and 30 μg to 80 μg is most preferred.

[1] = test system: infection-causing organisms; test: Laboratory testing of the coated elongate member in standard hemodialysis catheters; details: 250 μg on the elongate member; catheters containing saline, heparin-saline, or saline with 4% sodium citrate
Method: The safety profile of the invention can be enhanced by limiting the amount of chlorhexidine acetate available to enter the bloodstream, the preferred maximum amount of chlorhexidine acetate on the elongate member is 2000 μg, more preferred is 1000 μg, and most preferred is 350 μg.

[2] = test system: Candida albicans, Pseudomonas aeruginosa, Staphylococcus aureus, and Escherichia coli; test: Laboratory testing of elongate members in catheters under a variety of lock solutions and challenge organisms; details: lock solutions saline, heparinized-saline, 4% sodium citrate solution, human serum
Method: The minimum amount of antimicrobial agent on elongate member 33 was determined through laboratory testing in which elongate members were placed into catheters under a variety of lock solutions and challenge organisms. The type of lock solution was varied among saline, heparinized-saline, 4% sodium citrate solution, and human serum. A variety of challenge organisms were used, such as Candida albicans, Pseudomonas aeruginosa, Staphylococcus aureus, and Escherichia coli.

CC(=O)O.CC(=O)O.NC(=N\CCCCCC/N=C(N)/N=C(\N)Nc1ccc(Cl)cc1)/N=C(\N)Nc1ccc(Cl)cc1 [chlorhexidine acetate]
kill of Candida albicans seeded within the catheter's luer region (Candida albicans): killed all | reduction in number of infection-causing organisms [1]: > 10,000 × | organisms killed in the catheter versus amount on the elongate member [2]: dose response
